# In US7141592B2, “Substituted oxadiazolidinediones” (Wyeth, priority 2003, dated 2006):
# Target: T1, recombinant human plasminogen activator inhibitor-1 (PAI-1) (Homo sapiens, UniProt P05121)
# T1 construct: purchased Molecular Innovations, Royal Oak, Mich
# Assay: Primary screen for the PAI-1 inhibition (chromogenic tPA activity, Spectrozyme-tPA)
# Format: biochemical
# Details: compound at 100 μM
# Experimental: Test compounds are dissolved in DMSO at a final concentration of 10 mM, then diluted 100× in physiologic buffer. The inhibitory assay is initiated by the addition of the substituted oxadiazolidinedione (1–100 μM final concentration, maximun DMSO concentration of 0.2%) in a pH 6.6 buffer containing 140 nM recombinant human plasminogen activator inhibitor-1 (PAI-1; Molecular Innovations, Royal Oak, Mich.). Following a 1 hour incubation at room temperature, 70 nM of recombinant human tissue plasminogen activator (tPA) is added, and the combination of the substituted oxadiazolidinedione, PAI-1 and tPA is incubated for an additional 30 minutes. Following the second incubation, Spectrozyme-tPA (American Diagnostica, Greenwich, Conn.), a chromogenic substrate for tPA, is added and absorbance read at 405 nm at 0 and 60 minutes. Relative PAI-1 inhibition is equal to the residual tPA activity in the presence of the test compound and PAI-1. Control treatments include the complete inhibition of tPA by PAI-1 at the molar ratio employed (2:1), and the absence of any effect of the substituted oxadiazolidinedione on tPA alone.
# T1 sequence (P05121 24-402): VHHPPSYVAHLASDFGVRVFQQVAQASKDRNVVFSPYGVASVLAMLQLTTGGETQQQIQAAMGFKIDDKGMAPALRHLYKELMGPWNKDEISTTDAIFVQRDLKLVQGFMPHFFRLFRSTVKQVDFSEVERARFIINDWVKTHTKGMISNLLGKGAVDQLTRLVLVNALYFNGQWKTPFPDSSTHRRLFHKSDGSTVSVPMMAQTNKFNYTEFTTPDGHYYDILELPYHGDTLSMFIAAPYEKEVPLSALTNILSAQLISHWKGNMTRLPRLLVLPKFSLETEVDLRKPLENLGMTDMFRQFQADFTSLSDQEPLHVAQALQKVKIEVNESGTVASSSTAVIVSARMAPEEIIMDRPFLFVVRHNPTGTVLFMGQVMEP
Compound,inhibition at 100 µM [%],% Inhibition @ 100 μM [%]
"2-({4′-[(3-bromobenzyl)oxy]-1,1′-biphenyl-3-yl}methyl)-1,2,4-oxadiazolidine-3,5-dione [Compound 52]",,80
"2-({4′-[(4-bromobenzyl)oxy]-1,1′-biphenyl-3-yl}methyl)-1,2,4-oxadiazolidine-3,5-dione [Compound 50]",,41
"2-({4′-[(4-tert-butylbenzyl)oxy]-1,1′-biphenyl-3-yl}methyl)-1,2,4-oxadiazolidine-3,5-dione [Compound 48]",,23
"2-[(3′-{[3-(trifluoromethyl)benzyl]oxy}-1,1′-biphenyl-3-yl)methyl]-1,2,4-oxadiazolidine-3,5-dione [Compound 41]",,81
"2-[(3′-{[4-(trifluoromethyl)benzyl]oxy}-1,1′-biphenyl-3-yl)methyl]-1,2,4-oxadiazolidine-3,5-dione [Compound 37]",,3
"2-[(4′-{[3,5-bis(trifluoromethyl)benzyl]oxy}-1,1′-biphenyl-3-yl)methyl]-1,2,4-oxadiazolidine-3,5-dione [Compound 51]",,65
"2-[(4′-{[4-(trifluoromethyl)benzyl]oxy}-1,1′-biphenyl-3-yl)methyl]-1,2,4-oxadiazolidine-3,5-dione [Compound 49]",,28
"2-{3-[3-(4-isobutylphenoxy)prop-1-ynyl]benzyl}-1,2,4-oxadiazolidine-3,5-dione [Compound 70]",,76
"2-{4-[3-(4-isobutylphenoxy)prop-1-ynyl]benzyl}-1,2,4-oxadiazolidine-3,5-dione [Compound 64]",,65
"2-{[4-(phenylethynyl)thien-2-yl]methyl}-1,2,4-oxadiazolidine-3,5-dione [Compound 58]",,45
"2-{[5-(phenylethynyl)thien-2-yl]methyl}-1,2,4-oxadiazolidine-3,5-dione [Compound 59]",,60
"C=CCn1cc(Cn2oc(=O)[nH]c2=O)c2cc(OCc3ccc(C(C)(C)C)cc3)ccc21 [Compound 2, 2-({1-allyl-5-[(4-tert-butylbenzyl)oxy]-1H-indol-3-yl}methyl)-1,2,4-oxadiazolidine-3,5-dione]",100,
"CCn1cc(Cn2oc(=O)[nH]c2=O)c2cc(OCc3ccc(C(C)(C)C)cc3)ccc21 [Compound 3, 2-({5-[(4-tert-butylbenzyl)oxy]-1-ethyl-1H-indol-3-yl}methyl)-1,2,4-oxadiazolidine-3,5-dione]",9,
"C=CCn1cc(Cn2oc(=O)[nH]c2=O)c2cc(OCc3ccc(C(F)(F)F)cc3)ccc21 [Compound 4, 2-[(1-allyl-5-{[4-(trifluoromethyl)benzyl]oxy}-1H-indol-3-yl)methyl]-1,2,4-oxadiazolidine-3,5-dione]",96,
"C=CCn1cc(Cn2oc(=O)[nH]c2=O)c2cc(OCc3cc(C(F)(F)F)cc(C(F)(F)F)c3)ccc21 [Compound 5, 2-[(1-allyl-5-{[3,5-bis(trifluoromethyl)benzyl]oxy}-1H-indol-3-yl)methyl]-1,2,4-oxadiazolidine-3,5-dione]",100,
"CCn1cc(Cn2oc(=O)[nH]c2=O)c2cc(OCc3cc(C(F)(F)F)cc(C(F)(F)F)c3)ccc21 [Compound 6, 2-[(5-{[3,5-bis(trifluoromethyl)benzyl]oxy}-1-ethyl-1H-indol-3-yl)methyl]-1,2,4-oxadiazolidine-3,5-dione]",28,
"O=c1[nH]c(=O)n(Cc2cn(Cc3ccccc3)c3ccc(OCc4cc(C(F)(F)F)cc(C(F)(F)F)c4)cc23)o1 [Compound 7, 2-[(1-benzyl-5-{[3,5-bis(trifluoromethyl)benzyl]oxy}-1H-indol-3-yl)methyl]-1,2,4-oxadiazolidine-3,5-dione]",94,
"O=c1[nH]c(=O)n(Cc2cn(Cc3ccccc3)c3ccc(OCc4cccc(Br)c4)cc23)o1 [Compound 8, 2-({1-benzyl-5-[(3-bromobenzyl)oxy]-1H-indol-3-yl}methyl)-1,2,4-oxadiazolidine-3,5-dione]",94,
"Cc1cccc(COc2ccc3c(c2)c(Cn2oc(=O)[nH]c2=O)cn3Cc2ccccc2)c1 [Compound 11, 2-({1-benzyl-5-[(3-methylbenzyl)oxy]-1H-indol-3-yl}methyl)-1,2,4-oxadiazolidine-3,5-dione]",59,

# Continued, in another order:
inhibition at 100 µM [%],Compound,% Inhibition @ 100 μM [%]
100,"C#CCn1cc(Cn2oc(=O)[nH]c2=O)c2cc(OCc3ccc(C(F)(F)F)cc3)ccc21 [Compound 12, 2-[(1-(2-propynyl)-5-{[4-(trifluoromethyl)benzyl]oxy}-1H-indol-3-yl)methyl]-1,2,4-oxadiazolidine-3,5-dione]",
100,"O=c1[nH]c(=O)n(Cc2cn(Cc3ccccc3)c3ccc(OCc4ccc(C(F)(F)F)cc4)cc23)o1 [Compound 13, 2-[(1-benzyl-5-{[4-(trifluoromethyl)benzyl]oxy}-1H-indol-3-yl)methyl]-1,2,4-oxadiazolidine-3,5-dione]",
100,"O=c1[nH]c(=O)n(Cc2cn(Cc3ccccc3)c3ccc(OCc4ccc(Br)cc4)cc23)o1 [Compound 14, 2-({1-benzyl-5-[(4-bromobenzyl)oxy]-1H-indol-3-yl}methyl)-1,2,4-oxadiazolidine-3,5-dione]",
91,"C#CCn1cc(Cn2oc(=O)[nH]c2=O)c2cc(OCc3cc(C(F)(F)F)cc(C(F)(F)F)c3)ccc21 [Compound 15, 2-{[5-{[3,5-bis(trifluoromethyl)benzyl]oxy}-1-(2-propynyl)-1H-indol-3-yl]methyl}-1,2,4-oxadiazolidine-3,5-dione]",
49,"C#CCn1cc(Cn2oc(=O)[nH]c2=O)c2cc(OCc3ccccc3Cl)ccc21 [Compound 17, 2-{[5-[(2-chlorobenzyl)oxy]-1-(2-propynyl)-1H-indol-3-yl]methyl}-1,2,4-oxadiazolidine-3,5-dione]",
100,"C#CCn1cc(Cn2oc(=O)[nH]c2=O)c2cc(OCc3ccc(Cl)c(Cl)c3)ccc21 [Compound 18, 2-{[5-[(3,4-dichlorobenzyl)oxy]-1-(2-propynyl)-1H-indol-3-yl]methyl}-1,2,4-oxadiazolidine-3,5-dione]",
79,"O=c1[nH]c(=O)n(Cc2cn(Cc3ccccc3)c3ccc(OCc4ccc(Cl)c(Cl)c4)cc23)o1 [Compound 19, 2-({1-benzyl-5-[(3,4-dichlorobenzyl)oxy]-1H-indol-3-yl}methyl)-1,2,4-oxadiazolidine-3,5-dione]",
84,"C#CCn1cc(Cn2oc(=O)[nH]c2=O)c2cc(OCc3ccc4ccccc4c3)ccc21 [Compound 20, 2-{[5-(2-naphthylmethoxy)-1-(2-propynyl)-1H-indol-3-yl]methyl}-1,2,4-oxadiazolidine-3,5-dione]",
98,"C=CCn1cc(Cn2oc(=O)[nH]c2=O)c2cc(OCc3ccc4ccccc4c3)ccc21 [Compound 21, 2-{[1-allyl-5-(2-naphthylmethoxy)-1H-indol-3-yl]methyl}-1,2,4-oxadiazolidine-3,5-dione]",
92,"O=c1[nH]c(=O)n(Cc2cn(Cc3ccccc3)c3ccc(OCc4ccc5ccccc5c4)cc23)o1 [Compound 22, 2-{[1-benzyl-5-(2-naphthylmethoxy)-1H-indol-3-yl]methyl}-1,2,4-oxadiazolidine-3,5-dione]",
91,"C#CCn1cc(Cn2oc(=O)[nH]c2=O)c2cc(OCc3ccc(C(C)(C)C)cc3)ccc21 [Compound 23, 2-{[5-[(4-tert-butylbenzyl)oxy]-1-(2-propynyl)-1H-indol-3-yl]methyl}-1,2,4-oxadiazolidine-3,5-dione]",
68,"C#CCn1cc(Cn2oc(=O)[nH]c2=O)c2cc(OCc3ccc(Br)cc3)ccc21 [Compound 24, 2-{[5-[(4-bromobenzyl)oxy]-1-(2-propynyl)-1H-indol-3-yl]methyl}-1,2,4-oxadiazolidine-3,5-dione]",
64,"C=CCn1cc(Cn2oc(=O)[nH]c2=O)c2cc(OCc3ccc(Br)cc3)ccc21 [Compound 25, 2-({1-allyl-5-[(4-bromobenzyl)oxy]-1H-indol-3-yl}methyl)-1,2,4-oxadiazolidine-3,5-dione]",
100,"C#CCn1cc(Cn2oc(=O)[nH]c2=O)c2cc(OCc3cccc(Br)c3)ccc21 [Compound 26, 2-{[5-[(3-bromobenzyl)oxy]-1-(2-propynyl)-1H-indol-3-yl]methyl}-1,2,4-oxadiazolidine-3,5-dione]",
100,"C=CCn1cc(Cn2oc(=O)[nH]c2=O)c2cc(OCc3cccc(Br)c3)ccc21 [Compound 27, 2-({1-allyl-5-[(3-bromobenzyl)oxy]-1H-indol-3-yl}methyl)-1,2,4-oxadiazolidine-3,5-dione]",
48,"C#CCn1cc(Cn2oc(=O)[nH]c2=O)c2cc(OCc3cccc(Cl)c3)ccc21 [Compound 28, 2-{[5-[(3-chlorobenzyl)oxy]-1-(2-propynyl)-1H-indol-3-yl]methyl}-1,2,4-oxadiazolidine-3,5-dione]",
79,"C=CCn1cc(Cn2oc(=O)[nH]c2=O)c2cc(OCc3cccc(C(F)(F)F)c3)ccc21 [Compound 29, 2-[(1-allyl-5-{[3-(trifluoromethyl)benzyl]oxy}-1H-indol-3-yl)methyl]-1,2,4-oxadiazolidine-3,5-dione]",
91,"C=CCn1cc(Cn2oc(=O)[nH]c2=O)c2cc(OCc3ccccc3Cl)ccc21 [Compound 33, 2-({1-allyl-5-[(2-chlorobenzyl)oxy]-1H-indol-3-yl}methyl)-1,2,4-oxadiazolidine-3,5-dione]",
